In US11667674B2, “Antibacterial cyclic lipopeptides” (priority 2016, dated 2023):
Values after ≈ are worked out from the molar mass of the structure shown. Read-outs that look alike come from different tables or passages of the source.

What was measured:
[1] = test system: MRSA ATCC 33591
[2] = test system: MRSA ATCC33591; assay: Neutropenic mouse thigh infection model; assay type: in vivo, S. aureus; design: Δ (thigh c.f.u. versus control): unit not given here; conditions: for Thigh colony-forming units (c.f.u): neutropenic ICR mice, thighs at 24 h, X ± SD, n = 5
Method: Compound 1 was tested against MRSA ATCC33591 in a neutropenic mouse thigh infection model. Both female and male ICR mice were rendered neutropenic by cyclophosphamide (three consecutive doses of 150 mg per kg delivered before infection). At day 4, bacteria were resuspended in sterile saline, 0.1 ml inoculum (MRSA ATCC33591, 5.0×10^6 c.f.u/ml) was injected into the left thighs of mice. At 2 h post-infection, mice received treatment with Compound 1 at 0.63, 1.25, 2.5, 5.0 mg per kg administered in a single dose (10 ml/kg), intravenous injection (five mice per group). At 24 h post-infection, the left thighs were aseptically removed, weighed, homogenized, serially diluted and plated on trypticase soy agar for c.f.u titres.

[3] = test system: MRSA ATCC43300; assay: Right-sided endocarditis rat model; assay type: in vivo, S. aureus; conditions: for Log10 (CFU/g) of vegetation / Vegetation weight: Sprague-Dawley rats, 1 time/day for 2 days, 3 animals
Method: Male Sprague-Dawley rats (280-300 g) were intraperitoneally anesthetized with sodium pentobarbital solution (40 mg/kg). The rat chin area was treated with 75% alcohol. The right carotid artery was exposed through an anterior incision just slight right of midline above the calvicles. Polyethylene tubing was placed over 4-4.5 cm guided wire and passed within the right carotid artery into the left ventricle until resistance was met. Cardiac pulsations of the catheter indicated proper placement of the catheter tip at the apex of the heart. 0.5 ml inoculum of the overnight cultures (ATCC43300m 3.5×10^4 c.f.u./mL) was injected through a tail vein. After 24 hours of infection, the surviving rats were randomly divided into control group and treatment group. Compound 1 and daptomycin was administered via tail vein for 2 days (1 time/day). 24 h after the last administration, the animals were anesthetized and sacrificed. Vegetations and tissue samples were excised, weighed, homogenized, serially diluted and plated on trypticase soy agar for c.f.u titres.

[4] = test system: Clostridium difficile ATCCBAA-1382; assay: in vitro anti-Clostridium difficile MIC, standard broth dilution method; assay type: cell-based; conditions: for MIC: Clostridium difficile ATCCBAA-1382; for anti-Clostridium difficile activity compared with vancomycin and daptomycin: in words, both strains of Table 3
Method: (§1) Anti-Clostridium difficile activity of compound 1 was tested on two strains, C. difficile BAA-1382 and […], using the standard broth dilution method as described by the Clinical Laboratory Standard Institute.

[5] = test system: Clostridium difficile ATCC43255; assay: as above; assay type: cell-based
Method: as §1

[6] = 0.63 mg/kg single i.v. dose 2 h post-infection
[7] = 1.25 mg/kg single i.v. dose 2 h post-infection
[8] = 2.50 mg/kg single i.v. dose 2 h post-infection
[9] = 5.00 mg/kg single i.v. dose 2 h post-infection
[10] = Clostridium difficile ATCC43255

Structure (SMILES)	MIC [1] [µg/mL]	Δ (thigh c.f.u. versus control) ([2]; 0.63 mg/kg)	Δ (thigh c.f.u. versus control) ([2]; 1.25 mg/kg)	Δ (thigh c.f.u. versus control) ([2]; 2.50 mg/kg)	Δ (thigh c.f.u. versus control) ([2]; 5.00 mg/kg)	Thigh colony-forming units (c.f.u) [2, 6]	Thigh colony-forming units (c.f.u) [2, 7]	Thigh colony-forming units (c.f.u) [2, 8]	Thigh colony-forming units (c.f.u) [2, 9]	MIC [4] [µg/mL]	anti-Clostridium difficile activity compared with vancomycin and daptomycin [4]	MIC [5, 10] [µg/mL]	also measured
CCCCCCCCCC(=O)N[C@@H](Cc1c[nH]c2ccccc12)C(=O)N[C@H](CC(N)=O)C(=O)N[C@@H](CC(=O)O)C(=O)N[C@@H]1C(=O)NCC(=O)N[C@@H](CCCN)C(=O)N[C@@H](CC(=O)O)C(=O)N[C@H](C)C(=O)N[C@@H](CC(=O)O)C(=O)NCC(=O)N[C@H](CO)C(=O)N[C@@H](C(C)CC(=O)O)C(=O)N[C@@H](CC(=O)c2ccccc2NC)C(=O)O[C@@H]1C (some centres unmarked) [Compound 1]	0.5 (≈ 0.306 µM)	0.97	1.77	3.15	5.18	7.93 ± 0.85 log(CFU/thigh)	7.13 ± 0.25 log(CFU/thigh)	5.75 ± 0.35 log(CFU/thigh)	3.72 ± 0.35 log(CFU/thigh)	0.5 (≈ 0.306 µM)	better activities than vancomycin and daptomycin	0.5 (≈ 0.306 µM)	antibacterial activity compared with daptomycin ([2]; doses of 1.25 and 2.50 mg/kg, mice with thigh infected with S. aureus): significantly better antibacterial activity; Δ (Log10 CFU/g of vegetation versus control) ([3]; 20 mg/kg): 1.78; Log10 (CFU/g) of vegetation ([3]; 20 mg/kg via tail vein): 7.53 ± 1.08 Log10 (CFU/g); Vegetation weight ([3]; 20 mg/kg via tail vein): 0.012 ± 0.002 g; infection of S. aureus compared with the control groups and daptomycin ([3]; right-sided endocarditis rats): significantly decrease the infection of S. aureus
CCCCCc1ccc(/C(C)=C/C(=O)N[C@@H](Cc2c[nH]c3ccccc23)C(=O)N[C@H](CC(N)=O)C(=O)N[C@@H](CC(=O)O)C(=O)N[C@@H]2C(=O)NCC(=O)N[C@@H](CCCN)C(=O)N[C@@H](CC(=O)O)C(=O)N[C@H](C)C(=O)N[C@@H](CC(=O)O)C(=O)NCC(=O)N[C@H](CO)C(=O)N[C@@H](C(C)CC(=O)O)C(=O)N[C@@H](CC(=O)c3ccccc3NC)C(=O)O[C@@H]2C)cc1 (some centres unmarked) [Compound 7]										0.25 (≈ 0.148 µM)	better activities than vancomycin and daptomycin	0.25 (≈ 0.148 µM)	
CCCCCCCCCC(=O)N[C@@H](Cc1c[nH]c2ccccc12)C(=O)N[C@H](CC(N)=O)C(=O)N[C@@H](CC(=O)O)C(=O)N[C@@H]1C(=O)NCC(=O)N[C@@H](CCCN)C(=O)N[C@@H](CC(=O)O)C(=O)N[C@H](C)C(=O)N[C@@H](CC(=O)O)C(=O)NCC(=O)N[C@H](CO)C(=O)N[C@@H]([C@H](C)CC(=O)O)C(=O)N[C@@H](CC(=O)c2ccccc2N)C(=O)O[C@@H]1C [daptomycin, reference compound]	1 (≈ 0.617 µM)	0.88	1.09	1.97	4.97	8.02 ± 0.48 log(CFU/thigh)	7.81 ± 0.37 log(CFU/thigh)	6.93 ± 0.57 log(CFU/thigh)	3.93 ± 0.84 log(CFU/thigh)	1 (≈ 0.617 µM)		1 (≈ 0.617 µM)	Δ (Log10 CFU/g of vegetation versus control) ([3]; 40 mg/kg): 0.73; Log10 (CFU/g) of vegetation ([3]; 40 mg/kg via tail vein): 8.58 ± 0.55 Log10 (CFU/g); Vegetation weight ([3]; 40 mg/kg via tail vein): 0.007 ± 0.001 g
CCCCCc1ccc(/C(C)=C/C(=O)N[C@@H](Cc2c[nH]c3ccccc23)C(=O)N[C@H](CC(N)=O)C(=O)N[C@@H](CC(=O)O)C(=O)N[C@@H]2C(=O)NCC(=O)N[C@@H](CCCN)C(=O)N[C@@H](CC(=O)O)C(=O)N[C@H](C)C(=O)N[C@@H](CC(=O)O)C(=O)NCC(=O)N[C@H](CO)C(=O)N[C@@H]([C@H](C)CC(=O)O)C(=O)N[C@@H](CC(=O)c3ccccc3N)C(=O)O[C@@H]2C)cc1 [surotomycin, reference compound]										0.5 (≈ 0.297 µM)		0.5 (≈ 0.297 µM)	
CN[C@H](CC(C)C)C(=O)N[C@H]1C(=O)N[C@@H](CC(N)=O)C(=O)N[C@H]2C(=O)N[C@H]3C(=O)N[C@H](C(=O)N[C@H](C(=O)O)c4cc(O)cc(O)c4-c4cc3ccc4O)[C@H](O)c3ccc(c(Cl)c3)Oc3cc2cc(c3O[C@@H]2O[C@H](CO)[C@@H](O)[C@H](O)[C@H]2O[C@H]2C[C@](C)(N)[C@H](O)[C@H](C)O2)Oc2ccc(cc2Cl)[C@H]1O [vancomycin, reference compound]													MIC ([4]; Clostridioides difficile, ATCCBAA1382, read-out: MIC): 1 µg/mL (≈ 0.69 µM); MIC ([5]; Clostridioides difficile, ATCC43255): 1 µg/mL (≈ 0.69 µM)
